The text below walks through data of PubChem BioAssay (NCI).

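Growth conditions: 96-well plates. Treatment: test compound, 48 hours, 5 concentrations. Analysis: linear interpolation between bracketing concentrations; unreached endpoints set to highest concentration. GI50 = concentration required for 50% inhibition of growth. TGI denotes the concentration required for complete inhibition of growth.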

Some test systems named below: DLD-1 colon; HT29 colon; M14 melanoma; SK-MEL-28 melanoma; SK-MEL-5 melanoma; SNB-19 CNS; U251 CNS.
What all share (assay): inhibition of tumour cell growth, NCI panel, 48 h

Take `O=S(=O)(Cc1ccccc1)SCc1ccccc1`: the TGI with DLD-1 colon was 21.9 µM; in the test on HT29 colon it was 54.1 µM; in the test with M14 melanoma, 27.6 µM; in the test with SK-MEL-28 melanoma it was 97.2 µM; with SK-MEL-5 melanoma it was 48.5 µM; with SNB-19 CNS, over 100 µM. For the same molecule, the TGI in the test with U251 CNS amounted to 66.2 µM.
Regarding `CC1=C(C(=O)CC(=O)C(=O)Nc2ccccc2C)Sc2ccccc2N1`, the TGI in the test with DLD-1 colon is over 67.9 µM; with HT29 colon it was over 100 µM; in the test with M14 melanoma, over 100 µM; with SK-MEL-28 melanoma it was over 100 µM; in the test on SK-MEL-5 melanoma, over 100 µM; with SNB-19 CNS, over 100 µM. The TGI in the test with U251 CNS was over 100 µM.
Take `C/C(CC(=O)Nc1cccc(Cl)c1C)=N\N=C(N)N`: the TGI in the test on DLD-1 colon, in the test with HT29 colon, in the test with M14 melanoma, with SK-MEL-28 melanoma, in the test with SK-MEL-5 melanoma and with SNB-19 CNS was over 100 µM each time. In the test with U251 CNS, this molecule had a TGI of over 100 µM.
For `NNC(=O)N/N=C1\CNC(=O)C(=O)C1c1nc2ccccc2s1` (stereo not given), the TGI in the test with DLD-1 colon, in the test with HT29 colon, in the test on M14 melanoma, with SK-MEL-28 melanoma, with SK-MEL-5 melanoma and in the test with SNB-19 CNS was over 100 µM each time. In the test with U251 CNS, this molecule returned a TGI of over 100 µM.
On to `CN(C)CCNC(=O)c1cccc2cc3ccc4ccccc4c3nc12`, for which the TGI was found to be 0.817 µM with DLD-1 colon; 0.701 µM in the test with HT29 colon; 0.41 µM in the test with M14 melanoma; 0.593 µM in the test with SK-MEL-28 melanoma; 0.358 µM with SK-MEL-5 melanoma; 0.919 µM in the test on SNB-19 CNS. This molecule also had a TGI in the test with U251 CNS of 0.663 µM.
For `O=C1c2ccoc2C(=O)c2oc(=O)ccc21`, the TGI in the test on DLD-1 colon was 36.4 µM; in the test on HT29 colon it was over 78.8 µM; with M14 melanoma it was 21.8 µM; with SK-MEL-28 melanoma it was 11.5 µM; in the test with SK-MEL-5 melanoma it was 3.15 µM; in the test on SNB-19 CNS, 31 µM. The TGI in the test on U251 CNS was found to be 20.8 µM.
Take `CC1(C)OC2OC(COC(=O)C(c3ccccc3)c3ccccc3)C3OC(C)(C)OC3C2O1` (stereo not given): the TGI in the test with DLD-1 colon is over 100 µM; in the test with HT29 colon, over 100 µM; in the test with M14 melanoma, over 100 µM; in the test with SK-MEL-28 melanoma it was over 100 µM; with SK-MEL-5 melanoma it was 24.4 µM; with SNB-19 CNS, over 100 µM.
`COc1ccc2nc(-c3ccc(O)cc3)ccc2c1`: the TGI with DLD-1 colon, with HT29 colon, in the test with M14 melanoma, in the test with SK-MEL-28 melanoma, in the test with SK-MEL-5 melanoma and in the test on SNB-19 CNS was over 100 µM each time.
`Cn1cc(NC(=O)c2cc(NC(=O)CCCCCCCC(=O)Nc3cc(C(=O)Nc4cc(C(=O)NCCC(=N)N)n(C)c4)n(C)c3)cn2C)cc1C(=O)NCCC(=N)N`: the TGI is over 100 µM with DLD-1 colon; over 100 µM with HT29 colon; over 100 µM in the test with M14 melanoma; 26.3 µM in the test with SK-MEL-28 melanoma; 22.3 µM in the test with SK-MEL-5 melanoma; over 100 µM in the test on SNB-19 CNS. Moreover, in the test with U251 CNS, the TGI came out at 44.6 µM.
Take `C1CCN2CC3CONC3C2C1` (stereo not given): the TGI in the test on DLD-1 colon, in the test on HT29 colon, in the test with M14 melanoma, with SK-MEL-28 melanoma, with SK-MEL-5 melanoma and in the test on SNB-19 CNS was over 100 µM throughout. In the test with U251 CNS, this molecule returned a TGI of over 100 µM.
In the case of `CC1(C)CC(O)CC(C)(C)N1.CC1(C)CC(O)CC(C)(C)N1.CC1(C)CC(O)CC(C)(C)N1.CC1(C)CC(O)CC(C)(C)N1.Cl.[Ti]`, the GI50 with DLD-1 colon, with HT29 colon, with M14 melanoma, with SK-MEL-28 melanoma, with SK-MEL-5 melanoma and in the test on U251 CNS was over 100 µM in each case. For the same molecule, the TGI with DLD-1 colon, in the test on HT29 colon, in the test with M14 melanoma, in the test with SK-MEL-28 melanoma, with SK-MEL-5 melanoma and in the test with U251 CNS was over 100 µM in each case.
For the molecule `CC(C)(C)c1cc(C(OCCl)(C(F)(F)F)C(F)(F)F)c2c(c1)C(C(F)(F)F)(C(F)(F)F)OC21c2ccccc2C(=O)c2ccccc21`, the TGI with DLD-1 colon, with HT29 colon, in the test with M14 melanoma, with SK-MEL-28 melanoma, in the test on SK-MEL-5 melanoma and in the test on SNB-19 CNS was over 100 µM each time. Further, in the test with U251 CNS, the TGI is over 100 µM.
Regarding `C1=C(c2ccccc2)C(OC2Oc3ccccc3C=C2c2ccccc2)Oc2ccccc21` (stereo not given), the TGI with DLD-1 colon, in the test with HT29 colon, with M14 melanoma, with SK-MEL-28 melanoma, with SK-MEL-5 melanoma and with SNB-19 CNS was over 100 µM in each case. The TGI in the test on U251 CNS amounted to 45.1 µM.
Regarding `Nc1c(-c2nc3ccccc3s2)[n+]([O-])c2ccccc2[n+]1[O-]`, the TGI is over 100 µM with DLD-1 colon; over 100 µM in the test on HT29 colon; 74.2 µM with M14 melanoma; 61.5 µM with SK-MEL-28 melanoma; 40.4 µM in the test on SK-MEL-5 melanoma; over 100 µM with SNB-19 CNS. The TGI with U251 CNS is over 100 µM.
Take `O=C(CCC(=O)C1Cc2ccccc2C1=O)Nc1cccc(C(F)(F)F)c1` (stereo not given): the TGI with DLD-1 colon, in the test with HT29 colon, in the test on M14 melanoma, in the test with SK-MEL-5 melanoma, in the test on SNB-19 CNS and in the test with U251 CNS was over 100 µM throughout.
For the molecule `Nc1c(C(=O)Nc2ccccc2O)[n+]([O-])c2ccccc2[n+]1[O-]`, the TGI in the test on DLD-1 colon is over 100 µM; in the test with HT29 colon it was over 100 µM; in the test on M14 melanoma, over 100 µM; with SK-MEL-28 melanoma, over 100 µM; in the test on SK-MEL-5 melanoma, 28.3 µM; in the test with SNB-19 CNS, over 100 µM. In addition, the TGI in the test with U251 CNS was over 100 µM.
Turning to `O=c1c2cccc3cccc(c4n1CCCN=4)c32`, the TGI in the test on DLD-1 colon, in the test on HT29 colon, in the test on M14 melanoma, in the test with SK-MEL-28 melanoma, in the test with SK-MEL-5 melanoma and in the test on U251 CNS was over 100 µM each time.
